For 29 compounds, IC50 results are on record in patent publication US20220089592A1, “IMIDAZO[1,2-A]PYRIDINYL DERIVATIVES AS IRAK4 INHIBITORS” (priority 2019, published 2022).

This assay concerns the target T1, IRAK4 (Homo sapiens, UniProt Q9NWZ3).
T1 sequence (Q9NWZ3 1-460): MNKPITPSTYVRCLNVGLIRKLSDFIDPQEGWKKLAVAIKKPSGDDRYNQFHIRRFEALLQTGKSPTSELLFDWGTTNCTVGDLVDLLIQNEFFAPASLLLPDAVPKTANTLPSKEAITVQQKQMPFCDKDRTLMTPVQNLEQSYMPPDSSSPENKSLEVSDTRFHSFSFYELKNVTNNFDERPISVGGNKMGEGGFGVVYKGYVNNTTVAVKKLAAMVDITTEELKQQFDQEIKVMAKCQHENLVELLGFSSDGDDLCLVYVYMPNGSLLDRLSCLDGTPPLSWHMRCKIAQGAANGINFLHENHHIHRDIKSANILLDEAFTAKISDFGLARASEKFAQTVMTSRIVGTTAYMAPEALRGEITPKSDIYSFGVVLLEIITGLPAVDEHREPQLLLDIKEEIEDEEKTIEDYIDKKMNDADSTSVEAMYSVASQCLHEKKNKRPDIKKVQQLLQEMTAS
Kind of assay: 2-hour 1 mM ATP IRAK4 Biochemical assay (as above, but with 100 pM IRAK4 and 1 mM ATP). The note with it: IRAK4 MSD BIOCHEMICAL (1 mM ATP) IC50 (μM), 100 pM IRAK4, 2 hours. The method, then: The 2-hour 10 μM ATP Biochemical Assay employs a MesoScale Detection (MSD) format.
The activity is quenched with 11 μl of 70 mM EDTA, pH 8.
To detect the phosphorylated biotinylated peptide substrate, 30 μl of the quenched reaction mixture is added to equivalent wells of a 384 well streptavidin coated MesoScale plate (Meso Scale Discovery #L21SA-1). After a 1 hour incubation of the plate for 1 hour at room temperature with gentle mixing, the plate wells are washed 3 times with 50 mM Tris, pH 7.5, 150 mM NaCl, 0.02% Tween-20.
A 25 μl volume of 1:500 anti-P-Threonine Rabbit polyclonal Antibody plus 1:500 Goat-anti-Rabbit Sulfo Tag Antibody (Meso Scale Discovery R32AB-1) in 50 mM Tris, pH 7.5, 150 mM NaCl, 0.02% Tween-20 plus 2% BSA is then added to each well. After a 1-hour incubation of the plate for 1 hour at room temperature with gentle mixing, the plate wells are washed, 3 times with 50 mM Tris, pH 7.5, 150 mM NaCl, 0.02% Tween-20. A 40 μl volume of 2×MSD Read Buffer (Meso Scale Discovery R92TC-1) is added to each well, and the plate is read immediately in an MSD Plate Reader (Meso Scale Discovery).
The 2-hour 1 mM ATP IRAK4 Biochemical assay was performed as described above, but with 100 pM IRAK4 and 1 mM ATP.
Usually IC50 stands for the concentration that inhibits the measured activity by half. Higher therefore signals weaker potency. `CC(C)Oc1cc2nc(C(F)F)cn2cc1NC(=O)c1ccn(C(F)F)n1` [Example 267, 1-(difluoromethyl)-N-(2-(difluoromethyl)-7-isopropoxyimidazo[1,2-a]pyridin-6-yl)-1H-pyrazole-3-carboxamide] came in with a half-inhibitory concentration (IC50) of 0.002 µM. This lies in the single-digit nanomolar range.
`COc1cc(NC(=O)c2cccc(C(F)F)n2)cn2cc([C@]3(C)C[C@@H](OC)C3)nc12` [Example 271, 6-(difluoromethyl)-N-(8-methoxy-2-((1r*,3r*)-3-methoxy-1-methylcyclobutyl)imidazo[1,2-a]pyridin-6-yl)picolinamide] had an IC50 of 0.016 µM. Compared with the last compound, the IC50 is about 8-fold higher.
`CCOc1c(NC(=O)c2cccc(C(F)F)n2)cn2cc(C3CCOCC3)nc2c1Cl` [Example 272, N-(8-chloro-7-ethoxy-2-(tetrahydro-2H-pyran-4-yl)imidazo[1,2-a]pyridin-6-yl)-6-(difluoromethyl)picolinamide]: the 50% inhibitory concentration (IC50) came out at 0.003 µM.
As for `O=C(Nc1cn2cc(C3CC4(CCOC4)C3)nc2cn1)c1cccc(C(F)F)n1` (centres unmarked) [Example 273, N-(2-(6-oxaspiro[3.4]octan-2-yl)imidazo[1,2-a]pyrazin-6-yl)-6-(difluoromethyl)picolinamide], half-maximal inhibition (IC50) required 0.02 µM.
In turn, `CC12CC(c3cn4cc(NC(=O)c5cccc(C(F)F)n5)ncc4n3)(CO1)C2` [Example 274, 6-(difluoromethyl)-N-(2-(1-methyl-2-oxabicyclo[2.1.1]hexan-4-yl)imidazo[1,2-a]pyrazin-6-yl)picolinamide] registered a half-maximal inhibitory concentration (IC50) of 0.068 µM.
Under `O=C(Nc1cn2cc(C3CCOCC3)nc2cn1)c1cccc2c1OCC2` [Example 275, N-(2-(tetrahydro-2H-pyran-4-yl)imidazo[1,2-a]pyrazin-6-yl)-2,3-dihydrobenzofuran-7-carboxamide] stands 0.038 µM; under `COc1nc(NC(=O)c2cccc(C(F)F)n2)cn2cc(C3COCCO3)nc12` (centres unmarked) [Example 278, N-(2-(1,4-dioxan-2-yl)-8-methoxyimidazo[1,2-a]pyrazin-6-yl)-6-(difluoromethyl)picolinamide], 0.023 µM.
Regarding `COCCCc1cn2cc(NC(=O)c3cccc(C(F)F)n3)cc(OC)c2n1` [Example 282, 6-(difluoromethyl)-N-(8-methoxy-2-(3-methoxypropyl)imidazo[1,2-a]pyridin-6-yl)picolinamide], the concentration for half-maximal inhibition (IC50) amounted to 0.007 µM.
Take `O=C(Nc1cc(OCC(F)F)c2nc(C3CCOCC3)cn2c1)c1cccc(C(F)F)n1` [Example 289, N-(8-(2,2-difluoroethoxy)-2-(tetrahydro-2H-pyran-4-yl)imidazo[1,2-a]pyridin-6-yl)-6-(difluoromethyl)picolinamide]: half-maximal inhibition (IC50) required 0.006 µM.
As to `CCc1cc(NC(=O)c2cccc(C(F)F)n2)cn2cc(C3CCOCC3)nc12` [Example 290, 6-(difluoromethyl)-N-(8-ethyl-2-(tetrahydro-2H-pyran-4-yl)imidazo[1,2-a]pyridin-6-yl)picolinamide], the IC50 worked out at 0.013 µM.
In the case of `CC(C)(O)c1cc2nc(C3CCOCC3)cn2cc1NC(=O)c1cccc(C(F)F)n1` [Example 292, 6-(difluoromethyl)-N-(7-(2-hydroxypropan-2-yl)-2-(tetrahydro-2H-pyran-4-yl)imidazo[1,2-a]pyridin-6-yl)picolinamide] it was 0.001 µM; in that of `CC(C)Oc1cc2nc(Cl)cn2cc1NC(=O)c1cccc(C(F)F)n1` [Example 294, N-(2-chloro-7-isopropoxyimidazo[1,2-a]pyridin-6-yl)-6-(difluoromethyl)picolinamide], 0.002 µM; in that of `COc1c(NC(=O)c2cccc(C(F)F)n2)cn2cc(C34COC(C)(C3)C4)nc2c1C` [Example 295, 6-(difluoromethyl)-N-(7-methoxy-8-methyl-2-(1-methyl-2-oxabicyclo[2.1.1]hexan-4-yl)imidazo[1,2-a]pyridin-6-yl)picolinamide], 0.004 µM.
Consider `Cc1nc(NC(=O)c2cccc(C(F)F)n2)cn2cc(C3CCOCC3)nc12` [Example 296, 6-(difluoromethyl)-N-(8-methyl-2-(tetrahydro-2H-pyran-4-yl)imidazo[1,2-a]pyrazin-6-yl)picolinamide], for which the IC50 was 0.089 µM.
`O=C(Nc1cn2cc(C3CCOCC3)nc2c(OCC(F)(F)F)n1)c1cccc(C(F)F)n1` [Example 303, 6-(difluoromethyl)-N-(2-(tetrahydro-2H-pyran-4-yl)-8-(2,2,2-trifluoroethoxy)imidazo[1,2-a]pyrazin-6-yl)picolinamide] had an IC50 of 0.038 µM.
Compound `O=C(Nc1cc(OC(F)F)c2nc(C3CCOCC3)cn2c1)c1cccc(C(F)F)n1` [Example 307, N-(8-(difluoromethoxy)-2-(tetrahydro-2H-pyran-4-yl)imidazo[1,2-a]pyridin-6-yl)-6-(difluoromethyl)picolinamide] showed an IC50 of 0.015 µM.
Compound `O=C(Nc1cc(Cl)c2nc(C3CCOCC3)cn2c1)c1cccc(C(F)F)n1` [Example 308, N-(8-chloro-2-(tetrahydro-2H-pyran-4-yl)imidazo[1,2-a]pyridin-6-yl)-6-(difluoromethyl)picolinamide] came in with a concentration for half-maximal inhibition (IC50) of 0.043 µM. Compared with the last compound, the IC50 is about 2.9-fold higher.
`COc1cc2nc(C34COC(C)(C3)C4)cn2cc1NC(=O)c1cccc(C(F)(F)F)n1` [Example 309, N-(7-methoxy-2-(1-methyl-2-oxabicyclo[2.1.1]hexan-4-yl)imidazo[1,2-a]pyridin-6-yl)-6-(trifluoromethyl)picolinamide] displayed an IC50 of 0.001 µM.
Consider `COc1ccccc1C(=O)Nc1cn2cc(C34CC(C#N)(C3)C4)nc2cc1OC(C)C` [Example 311, N-(2-(3-cyanobicyclo[1.1.1]pentan-1-yl)-7-isopropoxyimidazo[1,2-a]pyridin-6-yl)-2-methoxybenzamide], for which the IC50 turned out to be 0.006 µM.
`O=C(Nc1cn2cc(C3CCOCC3)nc2cc1C(F)(F)F)c1cccc(C(F)F)n1` [Example 312, 6-(difluoromethyl)-N-(2-(tetrahydro-2H-pyran-4-yl)-7-(trifluoromethyl)imidazo[1,2-a]pyridin-6-yl)picolinamide] gave a half-inhibitory concentration (IC50) of 0.052 µM. This IC50 lies about 8.7-fold higher than the previous one.
As for `COC(C)c1cc2nc(C3CCOCC3)cn2cc1NC(=O)c1cccc(C(F)F)n1` (centres unmarked) [Example 313, 6-(difluoromethyl)-N-(7-(1-methoxyethyl)-2-(tetrahydro-2H-pyran-4-yl)imidazo[1,2-a]pyridin-6-yl)picolinamide], the half-maximal inhibitory concentration (IC50) is 0.067 µM.
Under `COCc1cc2nc(C3CCOCC3)cn2cc1NC(=O)c1cccc(C(F)F)n1` [Example 314, 6-(difluoromethyl)-N-(7-(methoxymethyl)-2-(tetrahydro-2H-pyran-4-yl)imidazo[1,2-a]pyridin-6-yl)picolinamide] stands 0.013 µM; under `Cc1cccc(C(=O)Nc2cn3cc(C4CCOCC4)nc3cc2C(F)F)n1` [Example 315, N-(7-(difluoromethyl)-2-(tetrahydro-2H-pyran-4-yl)imidazo[1,2-a]pyridin-6-yl)-6-methylpicolinamide], 0.021 µM.
For the compound `CCOc1cc2nc(C(C)C#N)cn2cc1NC(=O)c1cccc(C(F)F)n1` (centres unmarked) [Example 316, N-(2-(1-cyanoethyl)-7-ethoxyimidazo[1,2-a]pyridin-6-yl)-6-(difluoromethyl)picolinamide], half-maximal inhibition (IC50) required 0.003 µM.
The compound `CC(C)Oc1c(NC(=O)c2cccnc2OC(F)F)cn2cc(C34COC(C)(C3)C4)nc2c1F` [Example 323, 2-(difluoromethoxy)-N-(8-fluoro-7-isopropoxy-2-(1-methyl-2-oxabicyclo[2.1.1]hexan-4-yl)imidazo[1,2-a]pyridin-6-yl)nicotinamide] came in with a half-maximal inhibitory concentration (IC50) of 0.073 µM.
For `CC(C)Oc1c(NC(=O)c2cccn(C(F)F)c2=O)cn2cc(C34COC(C)(C3)C4)nc2c1F` [Example 324, 1-(difluoromethyl)-N-(8-fluoro-7-isopropoxy-2-(1-methyl-2-oxabicyclo[2.1.1]hexan-4-yl)imidazo[1,2-a]pyridin-6-yl)-2-oxo-1,2-dihydropyridine-3-carboxamide], the half-inhibitory concentration (IC50) worked out at 0.002 µM.
In the case of `CC(C)Oc1c(NC(=O)c2ccn(C)n2)cn2cc(C34CCC(C)(C3)OC4)nc2c1F` (centres unmarked) [Example 325, N-(8-fluoro-7-isopropoxy-2-(1-methyl-2-oxabicyclo[2.2.1]heptan-4-yl)imidazo[1,2-a]pyridin-6-yl)-1-methyl-1H-pyrazole-3-carboxamide] it was 0.002 µM; in that of `CCC(C)Oc1c(NC(=O)c2cccnc2OC)cn2cc(C34COC(C)(C3)C4)nc2c1F` (centres unmarked) [Example 326, N-(7-(sec-butoxy)-8-fluoro-2-(1-methyl-2-oxabicyclo[2.1.1]hexan-4-yl)imidazo[1,2-a]pyridin-6-yl)-2-methoxynicotinamide], 0.012 µM.
`COc1ncccc1C(=O)Nc1cn2cc(C34COC(C)(C3)C4)nc2c(F)c1OC1CCCC1` [Example 329]: half-maximal inhibition (IC50) was put at 0.017 µM.
